In patent publication US12403144B2, “HECT E3 ligase inhibitors and uses thereof” (IFOM FONDAZIONE ISTITUTO FIRC DI ONCOLOGIA MOLECOLARE, priority 2019, dated 2025):
Structures can show the parent of a compound that is named as a salt.

Target: T1, untagged HECT of NEDD4L (E3 ligase) (Homo sapiens, UniProt Q96PU5)
T1 construct: using untagged HECT of NEDD4L (E3 ligase) instead of untagged HECT of NEDD4 wild-type (WT) (E3 ligase); made in house; host or cells: bacteria (printed for the NEDD4L HECT of the western-blot assay; not repeated here)
T1 sequence (Q96PU5 594-975 limits assumed): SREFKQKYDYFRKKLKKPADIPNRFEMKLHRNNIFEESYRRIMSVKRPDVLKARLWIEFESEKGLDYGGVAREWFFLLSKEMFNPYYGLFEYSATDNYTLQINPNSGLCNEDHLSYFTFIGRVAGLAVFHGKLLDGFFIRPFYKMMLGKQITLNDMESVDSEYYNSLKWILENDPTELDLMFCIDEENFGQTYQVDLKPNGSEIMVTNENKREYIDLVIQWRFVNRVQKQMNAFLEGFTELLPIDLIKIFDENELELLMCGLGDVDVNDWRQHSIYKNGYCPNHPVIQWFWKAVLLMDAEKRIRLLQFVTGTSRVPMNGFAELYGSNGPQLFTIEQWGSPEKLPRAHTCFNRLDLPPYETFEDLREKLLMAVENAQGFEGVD
Experiment: In vitro ubiquitination assay TR-FRET based, NEDD4L
Type: biochemical
Details: read-out: percentage of inhibition (NEDD4L)
Experimental: To determine the selectivity of identified NEDD4 inhibitors, it was quantitatively measured the self-ubiquitination process of the E3 HECT ligase belonging to NEDD4 family such as NEDD4L, HECW2 and ITCH in presence or not of some compounds such as 5, 9, 12, 29, 42, 45, 56, 58, 61, 77, 78, 85 and 94 employing TR-FRET based assays.
The assay was performed as described above in the paragraph titled “In vitro ubiquitination assay TR-FRET based” under the heading “2.1. NEDD4 UBIQUITINATION ASSAYS” using untagged HECT of NEDD4L (E3 ligase) instead of untagged HECT of NEDD4 wild-type (WT) (E3 ligase). In this case, final E1, E2 and E3 concentrations in the assay buffer (Tris-HCl pH 7.6 25 mM, NaCl 100 mM, MgCl2 5 mM and Tween 0.01%) were 30, 350 and 31.3 nanomolars, respectively. Untagged HECT NEDD4L (E3 ligase) enzyme was produced and purified as reported in E. Maspero et al. Methods Mol Biol. 1449:153-60 (2016) and in E. Maspero et al. EMBO Reports 12:342-349(2011).

| Structure (SMILES) | inhibition at 11 µM |
| --- | --- |
| CN(C/C=C/C#N)CCCCN1c2cc(Cl)ccc2C(=O)N(Cc2ccccc2)c2ccccc21 [Compound 61, (E)-4-{[4-(10-benzyl-3-chloro-11-oxo-10,11-dihydro-5H-dibenzo[b,e][1,4]diazepin-5-yl)butyl](methyl)amino}but-2-enenitrile maleate] | < 5% |
| CCOC(=O)/C=C/CNCCCCN1c2ccccc2C(=O)N(C)c2ccc(Cl)cc21 [Compound 29, Ethyl (E)-4-{[4-(7-chloro-10-methyl-11-oxo-10,11-dihydro-5H-dibenzo[b,e][1,4]diazepin-5-yl)butyl]amino}but-2-enoate maleate] | ≤ 20% |
| CON(C)C(=O)/C=C/CN(C)CCCCN1c2ccccc2CCc2ccc(Cl)cc21 [Compound 9, (E)-4-[4-(3-Chloro-10,11-dihydro-5H-dibenzo[b,f]azepin-5-yl)butyl-methyl-amino]-N-methoxy-N-methyl-but-2-enamide] | < 5% |
| CONC(=O)/C=C/CNCCCCN1c2ccccc2CCc2ccc(Cl)cc21 [Compound 78, (E)-4-[4-(3-Chloro-10,11-dihydro-5H-dibenzo[b,f]azepin-5-yl)butylamino]-N-methoxy-but-2-enamide maleate] | < 5% |
| CCOC(=O)/C=C/CCNCCCN1c2ccccc2CCc2ccc(Cl)cc21 [Compound 5, Ethyl (E)-5-[3-(3-chloro-10,11-dihydro-5H-dibenzo[b,f]azepin-5-yl)propylamino]pent-2-enoate maleate] | < 15% |
| COC(=O)/C=C/CN(C)CCCCN1c2cc(Cl)ccc2C(=O)N(Cc2ccccc2)c2ccccc21 [Compound 58, Methyl (E)-4-{[4-(10-benzyl-3-chloro-11-oxo-10,11-dihydro-5H-dibenzo[b,e][1,4]diazepin-5-yl)butyl](methyl)amino}but-2-enoate maleate] | < 5% |
| CN(C/C=C/C(=O)OCCOCCOCCOCCNC(=O)CCCC[C@@H]1SC[C@@H]2NC(=O)N[C@@H]21)CCCCN1c2ccccc2CCc2ccc(Cl)cc21 [Compound 94, 2-[2-(2-{2-[5-((3aS,4S,6aR)-2-Oxo-hexahydro-thieno[3,4-d]imidazol-4-yl)-pentanoylamino]-ethoxy}-ethoxy)-ethoxy]-ethyl (E)-4-{[4-(3-chloro-10,11-dihydro-dibenzo[b,f]azepin-5-yl)-butyl]-methyl-amino}but-2-enoate] | < 15% |

Further lines, results first:

| inhibition at 11 µM | Structure (SMILES) |
| --- | --- |
| < 15% | CCOC(=O)/C=C/CNCCCCN1c2cc(Cl)ccc2C(=O)N(C)c2ccccc21 [Compound 42, Ethyl (E)-4-{[4-(3-chloro-10-methyl-11-oxo-10,11-dihydro-5H-dibenzo[b,e][1,4]diazepin-5-yl)butyl]amino}but-2-enoate maleate] |
| < 15% | C#CCON(C)C(=O)/C=C/CN(C)CCCCN1c2ccccc2CCc2ccc(Cl)cc21 [Compound 77, (E)-4-[4-(3-Chloro-10,11-dihydro-5H-dibenzo[b,f]azepin-5-yl)butyl-methyl-amino]-N-methyl-N-prop-2-ynoxy-but-2-enamide maleate] |
| ≤ 20% | CCOC(=O)/C=C/CNCCCCN1c2cc(Cl)ccc2C(=O)N(Cc2ccccc2)c2ccccc21 [Compound 56, Ethyl (E)-4-((4-(10-benzyl-3-chloro-11-oxo-10,11-dihydro-5H-dibenzo[b,e][1,4]diazepin-5-yl)butyl)amino)but-2-enoate maleate] |
| ≤ 20% | CCOC(=O)/C=C/CNCCCCN1c2ccccc2C(=O)N(Cc2ccccc2)c2ccc(Cl)cc21 [Compound 45, Ethyl (E)-4-{[4-(10-benzyl-7-chloro-11-oxo-10,11-dihydro-5H-dibenzo[b,e][1,4]diazepin-5-yl)butyl]amino}but-2-enoate maleate] |
| < 15% | CCOC(=O)/C=C/CNCCCCN1c2ccccc2CCc2ccc(Cl)cc21.O=C(O)/C=C\C(=O)O [Compound 12, Ethyl (E)-4-[4-(3-chloro-10,11-dihydro-5H-dibenzo[b,f]azepin-5-yl)butylamino]but-2-enoate maleate] |
| < 5% | CONC(=O)/C=C/CN(C)CCCCN1c2ccccc2CCc2ccc(Cl)cc21 [Compound 85, (E)-4-[4-(3-Chloro-10,11-dihydro-5H-dibenzo[b,f]azepin-5-yl)butyl-methyl-amino]-N-methoxy-but-2-enamide maleate] |
